Source: patent publication US20110112100A1, “Hepatitis C Virus Inhibitors” (priority 2009, published 2011)
Counter-ions that a name gives are not always drawn. Like-named read-outs stand apart in the source and are kept apart here.

Assays:
[1] = system: 1a-H77 replicon cells; experiment: HCV 1a replicon inhibitory activity (Renilla luciferase); type: cell-based, hepatitis C virus; details: read-out: IC50 value (95% Confidence Intervals) pM Replicon 1A assay
Method: (§1) Test compounds were solubilised to 4 mM in 100% DMSO. Dilutions were made to the desired starting concentration in 100% DMSO and then 1 in 3 dilutions made, again in 100% DMSO. 0.5 μl of each sample was added to 384-well assay plates. White Lumitrac (Greiner) plates were used for the 1a and 1b replicon assays and black, clear bottomed (Greiner) plates were used for the WST-1 cytotoxity assay.
1a-H77 replicon cells (licensed from Apath LLC) were resuspended to a concentration of 1.4×10^5 cells/ml by addition of pre-warmed assay medium (Dulbecco's Modified Eagle's Medium (DMEM)+10% fetal calf serum (FCS)). 50 μl of this suspension was added to each well of a 384-well assay plate (Lumitrac, Greiner), already containing 0.5 μl of test compound.
All plates were covered with gas permeable seals and incubated at 37° C., 5% CO2 for 48 hours. After 48 hours, the assay plate was removed from the incubator and left to cool to room temperature for 15 to 30 mins. Medium was removed from the wells and 5 μl 1× lysis buffer (from Promega's Renilla Luciferase assay kit, E2820) was added to each well. The plate was incubated at room temperature for 15 mins then 15 μl 1×Assay Substrate (from the same kit) was added to each well. Luminescence was read immediately using an EnVision (Perkin Elmer) plate reader. The half maximal effective concentration (1050) values were calculated by constructing log concentration-response curves for each compound.

[2] = system: 1b (con1) replicon cells; experiment: HCV 1b replicon inhibitory activity (luciferase, Britelite Plus); type: cell-based, hepatitis C virus; details: read-out: IC50 value (95% Confidence Intervals) pM Replicon 1B assay
Method: as §1
1b (con1) replicon cells (pFK1389lucubineo/NS3-3′/ET/9B, licensed from Ralf Bartenschlager, University of Heidelberg) were resuspended to a concentration of 1.4×10^5 cells/ml by addition of pre-warmed medium (DMEM+10% FCS). 50 μl of this suspension was added to each well of a 384-well assay plate (Lumitrac, Greiner) already containing 0.5 μl of test compound.
All plates were covered with gas permeable seals and incubated at 37° C., 5% CO2 for 48 hours. After 48 hours, the plate was removed from the incubator and left to cool to room temperature for 15-30 mins. 35 ul of reconstituted Lyophilised Britelite Plus Substrate (PerkinElmer, 6016767) to medium was added to each well. Luminescence was read after 1 min but before 15 mins on an EnVision (Perkin Elmer) plate reader. The half maximal effective concentration (1050) values were calculated by constructing log concentration-response curves for each compound.

[3] = Hepatitis C virus, geometric mean, 95% confidence intervals in parentheses, 48 hours, medium with 10% FCS
[4] = geometric mean, 95% confidence intervals in parentheses, 48 hours, medium with 10% FCS

Row | SMILES | IC50 [1, 3] [pM] | IC50 [2, 3] [pM] | IC50 ([1]; Hepatitis C virus, 48 h) [pM] | IC50 ([2]; Hepatitis C virus, 48 h) [pM] | further results
1 | COC(=O)N[C@H](C(=O)N1CCC[C@H]1c1nc(-c2cnc(-c3cnc4cc(-c5cnc([C@@H]6CCCN6C(=O)[C@@H](NC(=O)OC)C(C)C)[nH]5)ccc4n3)nc2)c[nH]1)C(C)C [Example 21, Methyl {(2S)-1-[(2S)-2-{5-[2-(5-{2-[(2S)-1-{(2S)-2-[(methoxycarbonyl)amino]-3-methylbutanoyl}pyrrolidin-2-yl]-1H-imidazol-4-yl}pyrimidin-2-yl)quinoxalin-6-yl]-1H-imidazol-2-yl}pyrrolidin-1-yl]-3-methyl-1-oxobutan-2-yl}carbamate] | 671 | 222 |  |  | 
2 | COC(=O)N[C@H](C(=O)N1CCC[C@H]1c1nc(-c2cnc(-c3cc4ccc(-c5cnc([C@@H]6CCCN6C(=O)[C@@H](NC(=O)OC)C(C)C)[nH]5)cc4cn3)nc2)c[nH]1)C(C)C [Example 22, Methyl {(2S)-1-[(2S)-2-{4-[2-(7-{2-[(2S)-1-{(2S)-2-[(methoxycarbonyl)amino]-3-methylbutanoyl}pyrrolidin-2-yl]-1H-imidazol-5-yl}isoquinolin-3-yl)pyrimidin-5-yl]-1H-imidazol-2-yl}pyrrolidin-1-yl]-3-methyl-1-oxobutan-2-yl}carbamate] | 2190 | 152 |  |  | 
3 | COC(=O)N[C@H](C(=O)N1CCC[C@H]1c1ncc(-c2ccc3cc(-c4cnc(-c5cnc([C@@H]6CCCN6C(=O)[C@@H](NC(=O)OC)C(C)C)[nH]5)cn4)ccc3c2)[nH]1)C(C)C [Example 24, Methyl {(2S)-1-[(2S)-2-{5-[6-(5-{2-[(2S)-1-{(2S)-2-[(methoxycarbonyl)amino]-3-methylbutanoyl}pyrrolidin-2-yl]-1H-imidazol-4-yl}pyrazin-2-yl)naphthalen-2-yl]-1H-imidazol-2-yl}pyrrolidin-1-yl]-3-methyl-1-oxobutan-2-yl}carbamate] | 19900 | 2010 |  |  | 
4 | CC[C@H](NC(=O)OC)C(=O)N1CCC[C@H]1c1ncc(-c2ccc3cc(-c4ccc(-c5cnc([C@@H]6CCCN6C(=O)[C@@H](NC(=O)OC)C(C)C)[nH]5)cc4)ccc3c2)[nH]1 [Example 26, Methyl {(2S)-1-[(2S)-2-{5-[4-(6-{2-[(2S)-1-{(2S)-2-[(methoxycarbonyl)amino]butanoyl}pyrrolidin-2-yl]-1H-imidazol-5-yl}naphthalen-2-yl)phenyl]-1H-imidazol-2-yl}pyrrolidin-1-yl]-3-methyl-1-oxobutan-2-yl}carbamate] | 64.1 | 1.92 |  |  | 
5 | COC(=O)N[C@H](C(=O)N1CCC[C@H]1c1nc(-c2ccc(-c3cnc4cc(-c5cnc([C@@H]6CCCN6C(=O)CNC(=O)CC(C)C)[nH]5)ccc4n3)cc2)c[nH]1)C(C)C [Example 33, Methyl {(2S)-3-methyl-1-[(2S)-2-(4-{4-[6-(2-{(2S)-1-[N-(3-methylbutanoyl)glycyl]pyrrolidin-2-yl}-1H-imidazol-5-yl)quinoxazolin-2-yl]phenyl}-1H-imidazol-2-yl}pyrrolidin-1-yl]-1-oxobutan-2-yl} carbamate trifluoroacetic acid salt] |  |  |  |  | IC50 [1, 4]: 2590 pM; IC50 [2, 4]: 32.2 pM
6 | COC(=O)N[C@H](C(=O)N1CCC[C@H]1c1nc(-c2ccc(-c3cnc4cc(-c5cnc([C@@H]6CCCN6C(=O)[C@H](CCC(N)=O)NC(C)=O)[nH]5)ccc4n3)cc2)c[nH]1)C(C)C [Example 34, Methyl {(2S)-1-[(2S)-2-{4-[4-(6-[2-[(2S)-1-(N^2-acetyl-L-glutaminyl)pyrrolidin-2-yl]-1H-imidazol-5-yl}quinoxalin-2-yl)phenyl]-1H-imidazol-2-yl}pyrrolidin-1-yl]-3-methyl-1-oxobutan-2-yl}carbamate trifluoroacetic acid salt] |  |  | 5930 | 1430 | 
7 | COC(=O)N[C@H](C(=O)N1CCC[C@H]1c1nc(-c2ccc(-c3cnc4cc(-c5cnc([C@@H]6CCCN6C(=O)CNC(C)=O)[nH]5)ccc4n3)cc2)c[nH]1)C(C)C [Example 35, Methyl {(2S)-1-[(2S)-2-{4-[4-(6-{2-[(2S)-1-(N-acetylglycyl)pyrrolidin-2-yl]-1H-imidazol-5-yl}quinoxalin-2-yl)phenyl]-1H-imidazol-2-yl}pyrrolidin-1-yl]-3-methyl-1-oxobutan-2-yl}carbamate trifluoroacetic acid salt] |  |  | 2300 | 254 | 
8 | COC(=O)N[C@H](C(=O)N1CCC[C@H]1c1nc(-c2ccc(-c3cnc4cc(-c5cnc([C@@H]6CCCN6C(=O)CNC(=O)CNC(C)=O)[nH]5)ccc4n3)cc2)c[nH]1)C(C)C [Example 36, Methyl {(2S)-1-[(2S)-2-{4-[4-(6-{2-[(2S)-1-(N-acetylglycylglycyl)pyrrolidin-2-yl]-1H-imidazol-5-yl}quinoxalin-2-yl)phenyl]-1H-imidazol-2-yl}pyrrolidin-1-yl]-3-methyl-1-oxobutan-2-yl}carbamate trifluoroacetic acid salt] |  |  | 29800 | 1740 | 
9 | CC[C@@H](NC(C)=O)C(=O)N1CCC[C@H]1c1ncc(-c2ccc3nc(-c4ccc(-c5c[nH]c([C@@H]6CCCN6C(=O)[C@@H](NC(=O)OC)C(C)C)n5)cc4)cnc3c2)[nH]1 [Example 38, Methyl {(2S)-1-[(2S)-2-(4-{4-[6-(2-{(2S)-1-[(2R)-2-(acetylamino)butanoyl]pyrrolidin-2-yl}-1H-imidazol-5-yl)quinoxalin-2-yl]phenyl}-1H-imidazol-2-yl)pyrrolidin-1-yl]-3-methyl-1-oxobutan-2-yl} carbamate trifluoroacetic acid salt] |  |  |  |  | IC50 [1, 4]: 1500 pM; IC50 [2, 4]: 71.9 pM
10 | CC[C@H](NC(C)=O)C(=O)N1CCC[C@H]1c1ncc(-c2ccc3nc(-c4ccc(-c5c[nH]c([C@@H]6CCCN6C(=O)[C@@H](NC(=O)OC)C(C)C)n5)cc4)cnc3c2)[nH]1 [Example 39, Methyl {(2S)-1-[(2S)-2-(4-{4-[6-(2-{(2S)-1-[(2S)-2-(acetylamino)butanoyl]pyrrolidin-2-yl}-1H-imidazol-5-yl)quinoxalin-2-yl]phenyl}-1H-imidazol-2-yl)pyrrolidin-1-yl]-3-methyl-1-oxobutan-2-yl}carbamate trifluoroacetic acid salt] |  |  | 1240 | 48.1 | 
11 | COC(=O)N[C@H](C(=O)N1CCC[C@H]1c1nc(-c2ccc(-c3cnc4cc(-c5cnc([C@@H]6CCCN6C(=O)[C@@H](NC(C)=O)[C@@H](C)O)[nH]5)ccc4n3)cc2)c[nH]1)C(C)C [Example 40, Methyl {(2S)-1-[(2S)-2-{4-[4-(6-{2-[(2S)-1-(N-acetyl-L-threonyl)pyrroldiin-2-yl]-1H-imidazol-5-yl}quinoxalin-2-yl)phenyl]-1H-imidazol-2-yl}pyrrolidin-1-yl]-3-methyl-1-oxobutan-2-yl}carbamate trifluoroacetic acid salt] |  |  |  |  | IC50 [1, 4]: 353 pM; IC50 [2, 4]: 55.8 pM
12 | COC(=O)N[C@H](C(=O)N1CCC[C@H]1c1nc(-c2ccc(-c3cnc4cc(-c5cnc([C@@H]6CCCN6C(=O)CNC(=O)c6cnc(C)cn6)[nH]5)ccc4n3)cc2)c[nH]1)C(C)C [Example 41, Methyl {(2S)-3-methyl-1-[(2S)-2-{4-[4-(6-{2-[(2S)-1-{N-[(5-methylpyrazin-2-yl)carbonyl]glycyl}pyrrolidin-2-yl]-1H-imidazol-5-yl}quinoxalin-2-yl)phenyl]-1H-imidazol-2-yl}pyrrolidin-1-yl]-1-oxobutan-2-yl}carbamate trifluoroacetic acid salt] |  |  | 1950 | 128 | 
